For 17 molecules, TGI and GI50 results are on record in PubChem BioAssay (NCI).

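Following 48 hours of exposure in 96-well plates, responses at five concentrations were used to interpolate endpoints linearly. At the GI50, growth is halved. TGI is the concentration that stops growth completely.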 A value given as a limit tells only on which side of the number the result lay.

Some test systems named below: MOLT-4 leukemia; KM12 colon; SR leukemia; 786-0 renal; NCI-H522 lung; LOX IMVI melanoma; MALME-3M melanoma; HS 578T breast; T-47D breast; MDA-MB-435.
Test in all cases: growth of human tumour cells (NCI), 48 h

As to `Brc1cccc(C2SCc3nc4ccccc4n32)c1` (centres undefined), the TGI is more than 100 µM in the assay with MOLT-4 leukemia; 42.7 µM in the assay on KM12 colon; 57.7 µM in the assay on SR leukemia; 44.5 µM in the assay on 786-0 renal; 36.6 µM in the assay on NCI-H522 lung; 28.6 µM in the assay on LOX IMVI melanoma. Also, in the assay with MALME-3M melanoma, the TGI was 77.5 µM.

On to `CCOC(=O)C(C)(c1cn(C)c2ccccc12)c1cn(C)c2ccccc12`, for which the TGI in the assay with MOLT-4 leukemia, in the assay with KM12 colon, in the assay on 786-0 renal and in the assay with MALME-3M melanoma was more than 100 µM in each case.

As to `COc1ccc(OC)c(NC(=O)CCC/C(CC(=O)c2ccc(O)c(OC)c2)=N\NC(=O)C[N+](C)(C)C)c1`, the TGI in the assay on MOLT-4 leukemia, in the assay on KM12 colon, in the assay with SR leukemia, in the assay with 786-0 renal, in the assay with NCI-H522 lung and with LOX IMVI melanoma was more than 100 µM each time. The TGI with MALME-3M melanoma is more than 100 µM.

As to `COc1cc2c(cc1OC(=O)CC(C)O)C1C(OC2=O)C(OC(C)=O)C=C2CCN(C)[C@H]21` (some centres undefined), the TGI with MOLT-4 leukemia was more than 100 µM; in the assay on KM12 colon it was more than 100 µM; with SR leukemia, more than 100 µM; in the assay on 786-0 renal, 53.7 µM; in the assay with NCI-H522 lung, more than 100 µM; in the assay with LOX IMVI melanoma it was more than 100 µM.

Consider `CCOC(=O)C1=C(NC)OC/C1=N\NC(=O)c1ccccc1O`, for which the TGI in the assay on MOLT-4 leukemia was more than 100 µM; with KM12 colon, more than 100 µM; in the assay on 786-0 renal, more than 100 µM; in the assay on NCI-H522 lung, 90.5 µM; in the assay with LOX IMVI melanoma, 70.4 µM; in the assay with MALME-3M melanoma, more than 100 µM.

With `CCOC(=O)c1oc2ccc(OC)c3c2c1CCC3`, the TGI in the assay on MOLT-4 leukemia, in the assay on KM12 colon, in the assay with SR leukemia, with 786-0 renal, with NCI-H522 lung and in the assay with LOX IMVI melanoma was more than 100 µM in each case. Further, the TGI with MALME-3M melanoma is more than 100 µM.

As to `COc1ccc(C2CC(c3cc(OC)c(OC)c(OC)c3)=NN2C(C)=O)cc1OCC(=O)Nc1nc2ccc(C(F)(F)F)cc2s1` (centres undefined), the GI50 was 2480 nM in the assay on HS 578T breast, 3580 nM in the assay with 786-0 renal, 2710 nM in the assay on NCI-H522 lung and 3.36 µM in the assay with LOX IMVI melanoma. Moreover, the TGI was 7.74 µM with HS 578T breast, 12.2 µM in the assay on 786-0 renal, more than 100 µM in the assay on NCI-H522 lung and more than 100 µM in the assay with LOX IMVI melanoma.

For `CN(C)c1nc(=Nc2ccc3ccccc3c2)ss1`, the TGI in the assay on MOLT-4 leukemia was 20.9 µM; with KM12 colon, more than 100 µM; in the assay on SR leukemia it was 75.3 µM; with 786-0 renal, more than 100 µM; in the assay with NCI-H522 lung, 65.9 µM; with MALME-3M melanoma, more than 100 µM.

Turning to `COC1CC(OS(=O)(=O)c2ccc(C)cc2)C(OC(=O)c2ccccc2)C(C)O1` (centres undefined), the GI50 in the assay with MOLT-4 leukemia is more than 100 µM; with KM12 colon, more than 100 µM; in the assay with 786-0 renal it was more than 100000 nM; in the assay on NCI-H522 lung, more than 100000 nM; with LOX IMVI melanoma, more than 100 µM; in the assay with MALME-3M melanoma it was more than 100000 nM. The TGI in the assay on MOLT-4 leukemia was more than 100 µM; with KM12 colon, more than 100 µM; in the assay on SR leukemia, more than 10 µM; in the assay with 786-0 renal, more than 100 µM; with NCI-H522 lung, more than 100 µM; in the assay on LOX IMVI melanoma it was more than 100 µM. The molecule also yielded a TGI with MALME-3M melanoma of more than 100 µM.

As to `CCOC(=O)c1nc2ccc([N+](=O)[O-])cc2c2c1CCO2`, the TGI in the assay with MOLT-4 leukemia, with KM12 colon, with 786-0 renal, in the assay on NCI-H522 lung, with LOX IMVI melanoma and in the assay with MALME-3M melanoma was more than 100 µM each time.

On to `Cn1c2c(cc(S(=O)(=O)c3ccccc3)c1=O)CCc1c-2cnn1-c1ccc(Cl)cc1`, for which the GI50 in the assay on MOLT-4 leukemia was more than 100 µM; with HS 578T breast, 2720 nM; in the assay on KM12 colon, 5.12 µM; in the assay with 786-0 renal it was 2490 nM; with NCI-H522 lung, 1780 nM; in the assay on LOX IMVI melanoma, 4.09 µM. The GI50 with T-47D breast is 2060 nM. The TGI is more than 100 µM with MOLT-4 leukemia; 7.61 µM in the assay on HS 578T breast; more than 100 µM in the assay with KM12 colon; 5.51 µM in the assay with 786-0 renal; 4.12 µM with NCI-H522 lung; 17.3 µM in the assay with LOX IMVI melanoma. The molecule further displayed a TGI in the assay with T-47D breast of 5.5 µM.

In the case of `CC(C)CC(CC1=CCC2CC1C2(C)C)C1=C(O)C(C)(C)C(=O)C(C)(C)C1=O` (centres undefined), the GI50 in the assay with MOLT-4 leukemia is 0.343 µM; in the assay on HS 578T breast, 366 nM; in the assay with KM12 colon, 0.328 µM; with 786-0 renal, 363 nM; in the assay on NCI-H522 lung, 271 nM; in the assay with LOX IMVI melanoma, 0.336 µM. Moreover, the GI50 in the assay with MALME-3M melanoma is 295 nM; in the assay on MDA-MB-435, 374 nM. The TGI in the assay on MOLT-4 leukemia was 1.6 µM; in the assay on HS 578T breast, 3.81 µM; in the assay on KM12 colon, 2.79 µM; with 786-0 renal, more than 100 µM; in the assay with NCI-H522 lung it was 0.992 µM; in the assay with LOX IMVI melanoma, 10.7 µM. The figures for the TGI in the assay with MALME-3M melanoma and in the assay on MDA-MB-435 were 1.13 µM and 31.8 µM, respectively.

For `CC(=O)OC1CCn2nnc(CO[Si](C)(C)C(C)(C)C)c21` (centres undefined), the TGI in the assay with MOLT-4 leukemia, with KM12 colon, with SR leukemia, with 786-0 renal, in the assay on NCI-H522 lung and in the assay with MALME-3M melanoma was more than 100 µM each time.

Take `COc1cc(C(=O)C/C(CCC(=O)Nc2ccccc2[N+](=O)[O-])=N\NC(=O)CC#N)ccc1O`: the TGI in the assay on MOLT-4 leukemia, in the assay on KM12 colon, in the assay with 786-0 renal, with NCI-H522 lung, in the assay with LOX IMVI melanoma and in the assay on MALME-3M melanoma was more than 100 µM throughout.

With `Nn1c(-c2ccccc2Cl)nc2ccccc2c1=O`, the TGI in the assay on MOLT-4 leukemia, in the assay with KM12 colon, in the assay with 786-0 renal, in the assay on NCI-H522 lung and with MALME-3M melanoma was more than 100 µM throughout.

On to `Cc1c(C#N)c(=O)[nH]c(=O)n1CCN1CCN(C(=O)NCCCCCCNC(=O)N2CCN(CCn3c(C)c(C#N)c(=O)[nH]c3=O)CC2)CC1`, for which the TGI in the assay on MOLT-4 leukemia, with 786-0 renal and in the assay with LOX IMVI melanoma was more than 100 µM each time.

With `COc1ccc(C2=C(Cl)c3cc(OC)c(OC)cc3C2Cl)cc1OC` (centres undefined), the TGI with MOLT-4 leukemia amounted to 15.4 µM; in the assay with 786-0 renal, 41.5 µM; in the assay with LOX IMVI melanoma, 31.1 µM; in the assay with MALME-3M melanoma, 40.6 µM.
